Test results taken from ChEMBL document CHEMBL3580624 (J Nat Prod, 2015).
Active and inactive are the calls of the source. No cut-off for these calls is given here.

Assays:
[1] = target: T1, Prolyl endopeptidase (Homo sapiens, UniProt P48147); assay: Inhibition of human recombinant POP pre-incubated for 15 mins before Z-Gly-Pro-AMC substrate addition and further incubated for 1 hr by fluorimetry
T1 sequence (P48147 whole entry): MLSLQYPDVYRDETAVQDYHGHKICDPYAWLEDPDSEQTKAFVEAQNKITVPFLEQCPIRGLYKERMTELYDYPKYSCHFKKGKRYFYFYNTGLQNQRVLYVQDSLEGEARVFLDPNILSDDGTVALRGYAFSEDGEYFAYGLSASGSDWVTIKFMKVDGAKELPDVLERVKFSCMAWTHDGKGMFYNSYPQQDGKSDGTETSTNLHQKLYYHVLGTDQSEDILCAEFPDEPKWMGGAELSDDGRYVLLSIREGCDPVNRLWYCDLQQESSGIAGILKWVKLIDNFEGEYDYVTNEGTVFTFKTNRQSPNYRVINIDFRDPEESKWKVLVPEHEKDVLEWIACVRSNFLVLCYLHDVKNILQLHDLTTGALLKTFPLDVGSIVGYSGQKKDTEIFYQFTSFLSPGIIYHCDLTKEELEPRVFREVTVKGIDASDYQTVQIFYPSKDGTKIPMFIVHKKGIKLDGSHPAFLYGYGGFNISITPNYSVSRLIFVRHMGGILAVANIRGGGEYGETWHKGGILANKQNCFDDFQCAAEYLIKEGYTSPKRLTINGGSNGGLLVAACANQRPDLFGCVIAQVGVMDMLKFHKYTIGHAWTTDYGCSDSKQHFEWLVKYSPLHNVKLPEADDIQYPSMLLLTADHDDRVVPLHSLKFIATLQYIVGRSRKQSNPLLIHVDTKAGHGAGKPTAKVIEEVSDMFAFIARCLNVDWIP

[2] = species on record: Bos taurus; assay: Inhibition of bovine trypsin at 25 uM pre-incubated for 15 mins before Bz-Arg-AMC-HCl substrate addition and further incubated for 1 hr by fluorimetry
[3] = target: Chymotrypsinogen A (Bos taurus) (UniProt P00766); assay: Inhibition of bovine alpha-chymotrypsin at 75 uM pre-incubated for 15 mins before Ala-Ala-Phe-AMC substrate addition and further incubated for 1 hr by fluorimetry

SMILES	IC50 [1] [µM]	inhibition [2]	inhibition [3]
CC[C@H](C)[C@@H]1NC(=O)[C@@H]2CCCN2C(=O)[C@H](CC(C)C)NC(=O)CNC(=O)[C@H](CC(N)=O)NC(=O)[C@H](CCCNC(=N)N)NC(=O)[C@H]([C@@H](C)O)NC(=O)[C@@H]2CSSC[C@@H]3NC(=O)[C@H]([C@@H](C)O)NC(=O)CNC(=O)CNC(=O)[C@H](C(C)C)NC(=O)[C@@H]4CSSC[C@H](NC(=O)[C@H]([C@@H](C)O)NC(=O)[C@H](CSSC[C@H](NC1=O)C(=O)NCC(=O)N[C@@H](CCC(=O)O)C(=O)N[C@@H](CO)C(=O)N4)NC(=O)CNC(=O)[C@@H]1CCCN1C(=O)[C@H]([C@@H](C)O)NC(=O)[C@H](CC(N)=O)NC3=O)C(=O)N[C@@H]([C@@H](C)O)C(=O)N[C@@H](Cc1c[nH]c3ccccc13)C(=O)N1CCC[C@H]1C(=O)N[C@@H](C(C)C)C(=O)N2 (stereo in doubt; form 1)	9.57		
CC[C@H](C)[C@@H]1NC(=O)[C@@H]2CCCN2C(=O)[C@H](CC(C)C)NC(=O)CNC(=O)[C@H](CC(N)=O)NC(=O)[C@H](CCCNC(=N)N)NC(=O)[C@H]([C@@H](C)O)NC(=O)[C@@H]2CSSC[C@@H]3NC(=O)[C@H]([C@@H](C)O)NC(=O)CNC(=O)CNC(=O)[C@H](C(C)C)NC(=O)[C@@H]4CSSC[C@H](NC(=O)[C@H]([C@@H](C)O)NC(=O)[C@H](CSSC[C@H](NC1=O)C(=O)NCC(=O)N[C@@H](CCC(=O)O)C(=O)N[C@@H](CO)C(=O)N4)NC(=O)CNC(=O)[C@@H]1CCCN1C(=O)[C@H]([C@@H](C)O)NC(=O)[C@H](CC(N)=O)NC3=O)C(=O)N[C@@H]([C@@H](C)O)C(=O)N[C@@H](Cc1c[nH]c3ccccc13)C(=O)N1CCC[C@H]1C(=O)N[C@@H](C(C)C)C(=O)N2 (stereo in doubt; form 2) [listing 1 of 2 here]	8.6		
CC[C@H](C)[C@@H]1NC(=O)[C@@H]2CCCN2C(=O)[C@H](CC(C)C)NC(=O)CNC(=O)[C@H](CC(N)=O)NC(=O)[C@H](CCCNC(=N)N)NC(=O)[C@H]([C@@H](C)O)NC(=O)[C@@H]2CSSC[C@@H]3NC(=O)[C@H]([C@@H](C)O)NC(=O)CNC(=O)CNC(=O)[C@H](C(C)C)NC(=O)[C@@H]4CSSC[C@H](NC(=O)[C@H]([C@@H](C)O)NC(=O)[C@H](CSSC[C@H](NC1=O)C(=O)NCC(=O)N[C@@H](CCC(=O)O)C(=O)N[C@@H](CO)C(=O)N4)NC(=O)CNC(=O)[C@@H]1CCCN1C(=O)[C@H]([C@@H](C)O)NC(=O)[C@H](CC(N)=O)NC3=O)C(=O)N[C@@H]([C@@H](C)O)C(=O)N[C@@H](Cc1c[nH]c3ccccc13)C(=O)N1CCC[C@H]1C(=O)N[C@@H](C(C)C)C(=O)N2 (stereo in doubt; form 2) [listing 2 of 2 here]		inactive	inactive
